# Measurements reported in patent US20180117150A1, “Combination Therapies for CD38-Positive Hematological Malignances with ANTI-CD38 Antibodies and Cyclophosphamide” (Janssen Biotech, Inc., priority 2016, published 2018).
# Like-named read-outs stand apart in the source and are kept apart here.
# What was measured:
# MM1S cells [1] = experiment: Daratumumab-mediated MM1S tumor cell clearance in co-culture with conditioned THP-1 macrophages (ADCP assay); type: cell-based; details: for daratumumab-mediated tumor cell killing by macrophages (% specific MM1S cell clearance): THP-1 conditioned 48 hours with media of treated MM1S, 1 μg/ml daratumumab, E:T 2:1, 18 hours, FIG. 4
# Procedure: FIG. 4 illustrates the level of MM1S tumor cell clearance in co-culture of MM1S cells and THP-1 macrophages. Prior to initiation of co-cultures, THP-1 cells were cultured 48 hours in conditioned media generated from untreated MM1S tumor cells or MM1S cells treated with lenalidomide (FIG. 4A), bortezomib (FIG. 4B) or cyclophosphamide (CTX) alone or in combination with bortezomib or lenalidomide (FIG. 4C). MM1S cells were stained with calcein and incubated with daratumumab or IgG1 isotype control ([…]) and co-culture with THP-1 cells at a 2:1 effector to target ratio for 18 hours. Cell frequency was determined using the Accuri C6 (Right). The % specific cell clearance was calculated by the following formula:
# 100−100*(The frequency of calcein stained MM1S cells in the presence of 1 μg/ml daratumumab/
# The frequency of calcein stained MM1S cells in the presence of Isotype control).
# Co-cultures of MM1S and THP-1 cells were incubated in the presence of cytochalasin to assess if daratumumab mediated MM1S killing by ADCP. […] FIG. 5 illustrates the level of daratumumab-mediated tumor cell clearance in co-cultures of MM1S and THP-1 cells. Prior to initiation of co-cultures, THP-1 cells were cultured 48 hours in conditioned media generated from untreated MM1S tumor cells or MM1S cells treated with lenalidomide (FIG. 5A) or cyclophosphamide alone or in combination with lenalidomide or bortezomib (FIG. 5B) in the absence or presence of 1 μg/ml cytochalasin D. The % specific cell clearance was calculated by the following formula: […]
# [2] = test system: CD38 expression on multiple myeloma cells (MM1S); experiment: Flow cytometry of cell surface CD38 expression on treated MM1S cells; details: 48 hours after treatment, CTX 2.5, 5, 10 μM, CTX 10 μM with Bort 1 nM or Len 1 μM, FIG. 1
# Procedure: (§1) Cells: The multiple myeloma cell line, MM1S, was sub-cultured in RPMI 1640 media supplemented with 10% FBS and 50 IU/ml penicillin and 50 μg/ml Streptomycin. […] THP-1 cells were sub-cultured in RPMI 1640 media supplemented with 10% FBS and 50 IU/ml Penicillin and 50 μg/ml streptomycin. Cells were plated at a cell density of 2×10^5 cells/ml for experiments. […] Fresh media was added and the cells were further incubated for 24 hours after collecting the conditioned media. […] All antibodies were purchased from BD Pharmingen™ unless otherwise stated. Cells were stained with anti-CD38 (APC-conjugated) and anti-CD47 (FITC-conjugated, eBiosciences) antibodies and the level of expression of CD38 and CD47 was assessed. Sytox advanced reagents were used to assess cell death. Cells were analysed by flow cytometry. Sytox positive cells were excluded from analysis. The mean fluorescent intensity was calculated by expressing the fluorescent intensity of each sample relative to the cell size. […] FcγRI and FcγRlla/b expression was assessed by flow cytometry 48 hours later using anti-FcγRI (APC-conjugated) and anti- FcγRIIa/b (PE-conjugated) antibodies. The mean fluorescent intensity was calculated by expressing the fluorescent intensity of each sample relative to the cell size and subtracting the values for the isotype control/unstained samples.
# MM1S cells [3] = type: cell-based, human; details: for proportion of tumour cell clearance accounted for by ADCP: ± 1 μg/ml cytochalasin D, n=1
# Procedure: Antibody Dependant cellular phagocytosis (ADCP): To determine the number of macrophages per sample, 50 μl of 5×10^6 cells/mL concentration of MC isolated from PB and BM were diluted using 150 μl FACS buffer. Based on forward and side scatter profiles, the total number of macrophages were determined by timed acquisition events per unit volume using an Accuri™ C6. […] Cells were washed, incubated with mouse anti-human CD45-APC (BD Biosciences, San Jose, CA) and mouse anti-human CD14-PerCP-Cy5.5 (Miltenyi Biotech, Cologne, Germany) for 15 mins, then washed and re-suspended in 200 μl FACS buffer for sample acquisition. Macrophage and MM1S cells were gated using CFSE+ and CD45+CD14+ cells gating. Cell frequency was determined using the BD Canto IITM flow cytometer. Antibody-dependent phagocytosis was assessed and quanti?ed as follows: Phagocytosis was quanti?ed by frequency of remaining target cells (CFSE positive) with and without Ab treatment or isotype control. […] ADCP mediated clearance was calculated using the following formula: 100-100*(Proportion of live Dara-treated MM1S cells in untreated macrophage co-culture/ Proportion of live Dara-treated MM1S cells in CytoD conditioned macrophage co-culture).
# [4] = test system: CD32 (FcγRIIa/b) expression on THP-1 macrophages; experiment: CD32 (FcγRIIa/b) expression on THP-1 macrophages incubated in conditioned media from treated MM1S cells; details: THP-1 cells, 48 hours in conditioned media from treated MM1S cells; FIG. 3B
# Procedure: as §1
# [5] = test system: CD64 (FcγRI) expression on THP-1 macrophages; experiment: CD64 (FcγRI) expression on THP-1 macrophages incubated in conditioned media from treated MM1S cells; details: THP-1 cells, 48 hours in conditioned media from treated MM1S cells; FIG. 3A
# Procedure: as §1
# [6] = test system: CD47 on CD45-CD19-CD138+ plasma cells; details: 24 hour treatment vs baseline
# Procedure: Ethics: Pre-screened newly diagnosed MM patients were enrolled into the sub-clinical study by informed consent according to predetermined protocols and standard operating procedures for sample draw and included extraction of relevant details from medical records.
# Samples Isolation: Isolation of mononuclear cells (MC) from PB and BM aspirates were performed by layering 3mL EDTA-anti-coagulated sample over 3mL endotoxin-free Ficoll Plaque density-gradient medium (GE Healthcare, Little Chalfont, United Kingdom) in 15-mL Falcon tubes (Sarstedt, North Rhine-Westphalia, Niimbrecht, Germany), and centrifuged at 420 relative centrifugal force (RCF) for 22 minutes at 4° C. without braking. The “buffy coat” layer was isolated and washed twice with Fluorescence-activated cell sorting (FACS buffer) [2% foetal calf serum (Lonza, Basel, Switzerland), PBS and 0.05% NaN3 (Sigma-Aldrich, St. Louis, Mo., USA)]. […] Cells were counted using a haemocytometer and 5×10^5 cells per sample were stained for phenotypic characterisation by flow cytometry
# Characterisation Studies: Plasma cells: Cell surface expression of CD38, CD47, CD319 (SLAMF7), B-cell maturation antigen (BCMA), MIC A/B, Programmed death-ligand (PDL) 1, PDL2, CD54, CD11a and CD48 were analysed on CD45-CD19-CD138+ Plasma cells by flow cytometry. […]
# [7] = test system: CD47 expression on multiple myeloma cells (MM1S); experiment: Flow cytometry of cell surface CD47 expression on treated MM1S cells; details: 24 hours after treatment, CTX 2.5, 5, 10 μM, CTX 10 μM with Bort 1 nM or Len 1 μM, FIG. 2C
# Procedure: as §1
compound,measurement,setting,value
C=C1[C@@H](C)[C@H]2[C@H](Cc3ccccc3)NC(=O)[C@]23[C@H](OC(C)=O)/C=C/[C@@](C)(O)C(=O)[C@@H](C)C/C=C/[C@H]3[C@@H]1O [Cytochalasin D],daratumumab-mediated tumor cell clearance in the presence of cytochalasin D,"MM1S cells [1]; 1 μg/ml cytochalasin D in MM1S/THP-1 co-cultures, FIG. 5",reduced
CC(C)C[C@H](NC(=O)[C@H](Cc1ccccc1)NC(=O)c1cnccn1)B(O)O [bortezomib],daratumumab-mediated tumor cell killing by macrophages (% specific MM1S cell clearance),MM1S cells [1],potentiated
O=P1(N(CCCl)CCCl)NCCCO1 (centres unmarked) [cyclophosphamide],mean fluorescence intensity (MFI) of cell surface CD38 expression,[2],induced
same,proportion of tumour cell clearance accounted for by ADCP,"MM1S cells [3]; BM macrophages 24 hours after treatment with cyclophosphamide, FIG. 8C",> 25%
same,tumour cytotoxicity by macrophages in co-culture of PB or BM-derived macrophages and multiple myeloma cells,MM1S cells [3]; patient macrophages 24 hours after treatment vs prior to treatment,augmented
same,MFI of cell surface CD32 (FcγRIIa/b) expression,[4],induced
same,MFI of cell surface CD64 (FcγRI) expression,[5],induced
same,"CD47 surface expression (MFI) on plasma cells, bone marrow","[6]; BM, n=3, P=0.0555, FIG. 6B",decreased
same,"CD47 surface expression (MFI) on plasma cells, peripheral blood","[6]; PB, n=3, cyclophosphamide 150-300 mg/m^2, FIG. 6A",decreased
same,daratumumab-mediated tumor cell killing by macrophages (% specific MM1S cell clearance),MM1S cells [1],potentiated
same,daratumumab-mediated tumor cell killing by macrophages (% specific MM1S cell clearance),MM1S cells [1]; listed as Cyclophosphamide,augmented
same,mechanism of the potentiation of anti-myeloma activity of daratumumab,"MM1S cells [1]; concluded from cytochalasin D inhibition, FIG. 5",dependent on macrophage mediated ADCP
same,mean fluorescence intensity (MFI) of cell surface CD47 expression,[7],reduced
Nc1cccc2c1CN(C1CCC(=O)NC1=O)C2=O (centres unmarked) [lenalidomide],daratumumab-mediated tumor cell killing by macrophages (% specific MM1S cell clearance),MM1S cells [1],potentiated
same,daratumumab-mediated tumor cell killing by macrophages (% specific MM1S cell clearance),MM1S cells [1]; listed as lenalodomide,augmented
daratumumab,proportion of tumour cell clearance accounted for by ADCP,"MM1S cells [3]; BM macrophages prior to treatment, FIG. 8C",> 15%
same,difference between Dara and Isotype within the ADCP assay,"MM1S cells [3]; patient had received Daratumumab 16 mg/kg infusion, FIG. 8C",minimal difference
